pIC50: −log10 of the molar value. Entries after “also recorded” stand apart in the source; their conditions may differ. Like-named read-outs stand apart in the source and are kept apart here.
Columns and labels:
[1] = system: SW480 cells (adherent); experiment: Cell viability assay, adherent SW480 cultures; format: cell-based, human; conditions: adherent culture, 7 days
Experimental: (§1) SW480 or HCT116 cells were seeded into regular or Matrigel-coated 96-well plates at a density of 1000 cells/well. The cells were cultured in the corresponding adherent or spheroid culture medium (200 μL/well) containing the designated compounds or an equivalent amount of DMSO vehicle. Each culture was maintained for 7 days, and then cell viabilities were measured using a CellTiter-Glo 3D Cell Viability Assay kit (Promega). Briefly, 100 μL of the culture medium was removed from each well and replaced with 100 μL 3D Cell Assay reagent. The cells in each well were next homogenized by vigorous pipetting, and the plate was incubated for 10 min at room temperature to stabilize the chemiluminescent signal. A 150-μL aliquot from each well was then transferred into a white opaque 96-well assay plate (flat-bottom and non-treated; Corning Costar) and luminescence intensities were measured with a Veritas microplate luminometer (Turner BioSystems).

[2] = biological target: T1, ALDH1B1 (Homo sapiens, UniProt P30837); experiment: ALDH1B1 enzyme kinetics assay (NADH fluorescence, acetaldehyde substrate); format: biochemical; set-up: made in house; host or cells: E. coli BL21 (optionally co-expressed with GroEL/GroES); conditions: for pIC50: 1 μg/mL enzyme, 1 mM acetaldehyde, 1 mM NAD+, read-out: ALDH1B1(in vitro) IC50; for ALDH1B1 inhibition / isoform selectivity (in words): enzyme kinetics assays against ALDH isoforms
T1 sequence (P30837 18-517): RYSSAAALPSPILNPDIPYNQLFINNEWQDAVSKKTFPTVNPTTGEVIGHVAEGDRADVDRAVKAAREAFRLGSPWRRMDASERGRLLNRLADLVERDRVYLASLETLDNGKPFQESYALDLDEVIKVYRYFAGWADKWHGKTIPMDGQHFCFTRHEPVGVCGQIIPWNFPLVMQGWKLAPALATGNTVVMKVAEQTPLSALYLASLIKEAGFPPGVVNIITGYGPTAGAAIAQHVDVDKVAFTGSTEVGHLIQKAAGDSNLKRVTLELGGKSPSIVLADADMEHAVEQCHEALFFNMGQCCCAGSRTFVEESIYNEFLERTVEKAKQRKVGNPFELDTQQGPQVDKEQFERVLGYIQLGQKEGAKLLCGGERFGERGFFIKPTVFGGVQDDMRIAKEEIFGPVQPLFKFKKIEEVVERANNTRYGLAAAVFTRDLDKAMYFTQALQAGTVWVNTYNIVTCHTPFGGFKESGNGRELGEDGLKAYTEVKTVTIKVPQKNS
Experimental: Cloning, expression, and purification of human recombinant ALDH1A1, ALDH1A3, ALDH2, ALDH3A1, ALDH3A2, ALDH4A1, ALDH5A1 and ALDH7A1 isozymes were conducted as described previously (Chen, C. H. et al. (2015) Proc. Natl. Acad. Sci. U.S.A. 112, 3074-3079). Human ALDH1A2 (Origene, SC109995) and ALDH1B1 (T. Hurley, Indiana University) plasmids were cloned into the pET-15b expression vector (Novagen, 69661-3) containing an N-terminal hexahistidine tag. The mitochondria-targeting sequence of ALDH1B1 was also removed. For protein expression without chaperones, the pET-15b based plasmids were transformed into competent BL21 E. coli cells, which were subsequently grown in 1 L of Luria-Bertani medium containing 100 μg/mL ampicillin at 37° C. Once the OD600 value reached 0.6, the culture was transferred to 16° C. and 0.5 mM isopropyl β-d-1-thiogalactopyranoside was introduced to induce protein expression overnight. The bacteria were then pelleted by centrifugation (3000×g, 4° C. for 30 rain) and harvested. 40 mL BugBuster Master Mix buffer (MilliporeSigrna) containing a protease inhibitor cocktail (cOmplete; Roche) was added, and the cells were lysed by mechanically rolling the suspension at room temperature for 25 min. The lysate was centrifuged (16000×g, 4° C. for 30 min), and the soluble fraction was collected and mixed with 2 mL of Ni-NTA Superflow resin (Qiagen). After the mixture was avowed to rock at 4° C. for 1 h, it was used to create a 10-mL gravity column, which was sequentially treated with 40 mL of wash buffer 1 (20 mM sodium phosphate, 500 mM NaCl, 1 mM DTT, 20 mM imidazole, 5% glycerol, pH 7.4) and 25 mL of wash buffer 2 (20 mM sodium phosphate, 500 mM NaCl, 1 mM DTT, 40 mM imidazole, 5% glycerol, pH 7.4). The hexahistidine-tagged protein was then recovered by treated the column with 5 mL elution buffer (20 mM sodium phosphate, 500 mM NaCl, 1 mM DTT, 400 mM imidazole, 5% glycerol, pH 7.4) and collecting 500-μL fractions. The protein concentration for each fraction was measured (500 μL elution volume was collected as one fraction and was immediately mixed with 500 μL glycerol. The protein concentration for each fraction was measured (600 nm Protein Assay Reagent; Thermo Fisher Scientific), and protein-containing fractions were diluted with an equal volume of glycerol and stored at −80° C. Samples from each step were also collected for SDS-PAGE gel analysis. For ALDH1B1 protein co-expression with chaperones, pET-15b-ALDH1B1 and GroEL/GroES (Addgene, plasmid pBB541) plasmids were co-transformed into competent BL21 E. coli cells, which were subsequently grown in 1 L of Luria-Bertani medium containing 100 μg/mL ampicillin and 50 μg/mL spectinomycin at 37° C. The hexahistidine-tagged ALDH1B1 protein was then expressed and purified as described above.
To evaluate compound activities against ALDH isoforms, reaction mixtures consisting of enzyme assay buffer (100 mM sodium phosphate, 1 mM MgCl2, pH 8.0) and 0.1% DMSO, 1 mM β-mercaptoethanol, 1 mM NAD^+, and the bacterially expressed protein were prepared in white opaque 96-well assay plates (100 μL/well, flat-bottom and non-treated; Corning Costar). 5 μg/mL ALDH enzyme was used for single-dose (1, 10, 50 μM) compound test, and 1 μg/mL ALDH enzyme was used for IC50s determination. Acetaldehyde was then added to each well to achieve an initial substrate concentration of 1 mM, and the resulting enzymatic activity was measured based on NADH fluorescence. The fluorescence signal was read over the course of 10 min on a SpectraMax M2e microplate reader (340-nm excitation and 460-nm emission; Molecular Devices) operated by SoftMax Pro software. Compound activities were normalized to a DMSO control, and dose-response inhibition curves were fitted with four-parameter non-linear regression using Prism software. […]

[3] = system: SW480 cells (spheroid); experiment: Matrigel spheroid growth / viability assay, SW480; format: cell-based; conditions: for GI50: Matrigel spheroid culture, 7 days, read-out: Spheroid SW480 GI50
Experimental: To prepare Matrigel-coated culture plates, 96-well and 24-well plates were placed on ice and coated with 25 μL or 300 μL, respectively, of Matrigel matrix (Corning, LDEV-free) that had been thawed overnight at 4° C. The plates were then placed in a 37° C. incubator for 30 min to allow the Matrigel to solidify. SW480 or HCT116 cells were suspended in spheroid culture medium (RPMI-1640 containing 20 ng/mL recombinant human epidermal growth factor (Abcam, ab9697), 20 ng/mL recombinant human fibroblast growth factor (BioVision, 4037), 5 μg/mL heparin (Sigma), 1× N-2 supplement (Thermo Fisher Scientific), 100 U/mL penicillin, and 100 μg/mL streptomycin) and then seeded into the 96-well and 24-well Matrigel-coated plates at densities of 1,000 or 5,000 cells/well and total well volumes of […] or 1 mL, respectively. Compounds were diluted in spheroid culture medium and added to the wells, and the spheroid were grown at 37° C. with 5% CO2 for 7 days.
To quantify spheroid growth at the 7-day endpoint, unstained spheroids were imaged with phase-contrast illumination using a Keyence BZ-X710 microscope. Some cultures were also stained with crystal violet to enable brightfield imaging. Briefly, the Matrigel spheroids cultures were treated with PBS containing 0.5% crystal violet and 5% methanol for 15 min at 37° C. and then gently washed 4×5 min with PBS. Spheroid sizes were quantified with ImageJ (Fiji) software using masks created with the default “Threshold” function and foreground/background adjustments to optimize masking fidelity. The full field of view was then selected for “Analyze Particles” analysis, providing numbered list of each spheroid and its area in the micrograph. In the few cases that two adjacent spheroids were treated as one object by the image processing software, their measurements were manually corrected using the “Freehand Selections” tool. To exclude background and debris from dead cells, spheroids with areas less than 500 μm^2 were excluded from the image analyses.
as §1

[4] = HEK-293T cytotoxicity (cell viability) assay; format: cell-based; conditions: human, HEK-293T cells; adherent HEK-293T, 4-5 days, CellTiter-Glo; read-out: HEK293T GI50
Experimental: HEK-293T cells were seeded into a 96-well plate at a density of 5×10^3 cells/well and treated with varying concentrations of selected compounds or an equivalent amount of DMSO vehicle. The cells were cultured for 4-5 days without a media change, and after the DMSO-treated cells approached 100% confluence, the cell viabilities were measured using a CellTiter-Glo 3D Cell Viability Assay kit (Promega) and a Veritas microplate luminometer (Turner BioSystems) as described above.

[5] = biological target: T1, ALDH1B1; experiment: ALDEFLUOR assay of cellular ALDH1B1 activity in ALDH1B1-transfected ALDH1A3−/− A375 cells; format: cell-based; conditions: for effect on ALDH1B1-dependent ALDEFLUOR signal (cellular ALDH1B1 activity): flow cytometry
Experimental: ALDH1A3^−/− A375 cells were seeded into a 6-well plate at a density of 5×10^5 cells/well and cultured for 24 h. The cells were then transfected with either pCMV6-entry, pCMV6-GFP (Addgene, plasmid 11153), or pCMV-ALDH1B1. After 24 h, the media was replaced and transfection efficiencies were estimated by the EGFP-positive cells in the pCMV-GFP-transfected well. The cells were cultured for another 24 h and their ALDH activities were quantified using the ALDEFLUOR assay. Briefly, the cells were isolated from the plate with trypsin and resuspended in ALDEFLUOR assay buffer (STEMCELL Technologies) at a concentration of 4×10^5 cells/mL. Each ALDEFLUOR assay used 0.5 mL of this cell suspension, and the cells were treated with individual compounds for 15 min at 37° C. and 5% CO2. The cell suspensions were then treated with 2.5 μL ALDEFLUOR reagent and incubated for an additional 30 min at 37° C. and 5% CO2. The cells were then collected by centrifugation (450×g) for 5 min at room temperature, resuspended in 200 μL assay buffer, and analyzed with an LSR II flow cytometer (BD Biosciences) at the Stanford FACS facility.

Structure (SMILES): CCOc1ccc(C2=CN(c3ccc(-c4ccccc4OC)cc3)C3=NCCCN23)c(OC)c1 [Guanidine 65]
- GI50 ([1]; Homo sapiens, SW480, 168 h): 2.9 µM
- pIC50 [2]: 6.89
- GI50 ([3]; Homo sapiens, SW480, 168 h): 1.6 µM

Structure (SMILES): COc1ccccc1-n1cc(-c2ccc(-c3ccncc3)cc2)[n+]2c1CCCCC2.[Br-] [Imidazolium 13]
- potency against ALDH1B1 relative to imidazolium 2 (and 8) ([2]; dose-response, FIG. 15 panel d): approximately 2 fold
- ALDH1B1 inhibition / isoform selectivity (in words) [2]: ALDH1B1-specific inhibitors; also recorded: enhanced specificity for ALDH1B1 in comparison to imidazolium 2

Structure (SMILES): CCc1ccccc1C1=CN(c2ccc(-c3ccccc3)cc2)C2=NCCCCN12 [STL5-T-0027]
- GI50 [4]: 4.3 µM
- pIC50 [2]: 7.36

Structure (SMILES): COc1ccccc1-c1ccc(C2=CN(c3ccccc3OC)C3=NCCCCN23)cc1 [Compound 72]
- effect on ALDH1B1-dependent ALDEFLUOR signal (cellular ALDH1B1 activity) [5]: inhibit cellular ALDH1B1 activity
- efficacy on SW480 spheroid growth in combination with 5-FU ([3]; combination with 5-FU): closely matched the product of their individual activities

Structure (SMILES): COc1ccccc1C1=CN(c2ccc(-c3ccccc3)cc2)C2=NCCCN12 [Guanidine 66]
- ALDH1B1 inhibition / isoform selectivity (in words) [2]: ALDH1B1-selective inhibitors
- effect on ALDH1B1-dependent ALDEFLUOR signal (cellular ALDH1B1 activity) [5]: inhibits cellular ALDH1B1 activity

Structure (SMILES): CCOc1ccc(C2=CN(c3ccc(-c4ccccc4OC)cc3)C3=NCCCCN23)c(OC)c1 [Guanidine 64]
- GI50 ([1]; Homo sapiens, SW480, 168 h): 1.3 µM
- pIC50 [2]: 7.00
- GI50 ([3]; Homo sapiens, SW480, 168 h): 1.1 µM

Structure (SMILES): COc1ccccc1C1=CN(c2ccc(-c3ccccc3)cc2)C2=NCCCN12 [STL5-T-0001]
- GI50 [1]: 1.9 µM
- pIC50 [2]: 7.01
- GI50 [3]: 1.5 µM

Structure (SMILES): COc1ccccc1N1C=C(c2ccc(-c3ccccc3)cc2)N2CC(C)(C)CN=C21 [HPI-279]
- pIC50 [2]: 7.09
- pIC50 ([5]; ALDEFLUOR, ALDH1B1-overexpressing ALDH1A3−/− A375 cells, read-out: ALDH1B1(in cellulo) IC50): 6.96

Structure (SMILES): COc1cc(Cl)ccc1C1=CN(c2ccc(-c3ccccc3)cc2)C2=NCCCCN12 [STL5-T-0025]
- GI50 [4]: 5.2 µM
- pIC50 [2]: 7.38

Structure (SMILES): CCc1cc(Cl)ccc1C1=CN(c2ccc(-c3ccccc3CC)cc2)C2=NCCCN12 [STL8-T-0003]
- GI50 [4]: 1.3 µM
- pIC50 [2]: 7.13

Structure (SMILES): CCc1cc(Cl)ccc1C1=CN(c2ccc(-c3ccccc3)cc2)C2=NCCCN12 [STL8-T-0002]
- GI50 [4]: 1.5 µM
- pIC50 [2]: 7.28

Structure (SMILES): COc1cc(Cl)ccc1C1=CN(c2ccc(-c3ccccc3OC)cc2)C2=NCCCN12 [STL5-T-0057]
- GI50 ([1]; Homo sapiens, SW480, 168 h): 2.7 µM
- GI50 [4]: 1.7 µM
- pIC50 [2]: 7.52
- GI50 ([3]; Homo sapiens, SW480, 168 h): 0.44 µM

Structure (SMILES): Br.COc1ccccc1C1=CN(c2ccc(-c3ccccc3)cc2)C2=NCCCCN12 [Guanidine 68]
- ALDH1B1 inhibition / isoform selectivity (in words) [2]: ALDH1B1-selective inhibitors

Structure (SMILES): CCN(CC)c1ccc(C=O)cc1 [DEAB, N-diethylaminobenzaldehyde, reference compound]
- effect on ALDH1B1-dependent ALDEFLUOR signal (cellular ALDH1B1 activity) [5]: inhibited; also recorded: abrogated

Reference: US12570661B2, “Isoform-specific aldehyde dehydrogenase inhibitors” (The Board of Trustees of the Leland Stanford Junior …, priority 2020, dated 2026)
